# Measured values from patent publication US11679113B2, “Anticancer treatment for uveal melanoma” (The Regents of the University of California, priority 2019, dated 2023).
# Entries after “also recorded” stand apart in the source; their conditions may differ. Numbered stars: 1 amine (or outer) side, 2 acyl side, 3 side chain; on linkers, the order of the positions; unused ones are H or OH. Bridge positions count the residues as written; N and C are the ends. Square brackets hold non-standard residues; d marks the D form. Peptide text beside a SMILES is read from it. * marks the point of attachment. Leu(3R-OH,Nα-propionyl) = CCC(=O)N[C@H](C(=O)*)[C@H](O)C(C)C; X1 = CC(C)[C@@H](O[*:3])[C@H](N[*:1])C(=O)[*:2]; NMeT = CN[C@H](C(=O)O)[C@@H](C)O; dPhLac = O=C(O)[C@H](O)Cc1ccccc1; NMeA = CN[C@@H](C)C(=O)O; NMeDha = C=C(NC)C(=O)O
# Key:
# OM cells = test: FAKi/MEKi combination cell viability, synergy by Chou-Talalay CI and Bliss score; assay type: cell-based, human
# Excerpt: Applicant performed detailed combinatorial analysis achieving ERK pathway inhibition by a clinical MEK inhibitor, trametinib, combined with FAKi (VS-4718) at a series of dilutions of drug combinations. Drug combinations scored as synergistic (i. e., > than additive) are identified by using the most widely used methodologies: the Chou-Talalay combination index (CI) (Chou, 2010; Chou, 1984; and Chou, 2006) and the Bliss independence score (ΔBliss) (Chou, 2010; Chou, 2006; Berenbaum, 1989; Greco, 1995; and Geary, 2013) as Applicant recently described (Yamaguchi et al., 216).
# FAK [1] = test: Immunoblot of FAK phosphorylation (pY397-FAK) in UM cells; assay type: cell-based, human; conditions: OMM1.3 / Mel270 cells
# Protocol: (§1) Western blot assays were performed as described previously (Feng et al., 2014b). Western blots were developed using Immobilon Western Chemiluminescent HRP substrate (Millipore, MA) according to the manufacturer's instructions.
# [2] = tested on: SK-MEL-28 cells (BRAF mutant SKCM); test: Cell viability assay in SKCM control cell line; assay type: cell-based, human
# Protocol: (§2) HEK293 and HEK293T cells were cultured in DMEM (Sigma-Aldrich Inc., MO) containing 10% FBS (Sigma-Aldrich Inc., MO) and 1× antibiotic/antimycotic solution (Sigma-Aldrich Inc., MO). Culture conditions for UM cells (OMM1.3, OMM1.5, MEL202, Mel270 and 92.1) have been described elsewhere (Schmitt et al., 2007; Zuidervaart et al., 2005). SK-MEL-28 cells were purchased from ATCC and cultured following ATCC recommendations in EMEM containing 10% FBS. VS-4718 (PND-1186) was purchased from MedChemExpress (MCE) pre-prepared as a 10 mM solution in DMSO. FR900359 (FR) was graciously supplied by the lab of Dr. Evi Kostenis.
# (§3) Cell growth assays were performed as described previously (Yamaguchi et al., 2016). Cells were cultured in 96-well-plate and treated with drugs for 72 hr. The manufacturer's instructions of Alamar Blue Cell Viability Reagent were followed to complete the assay.
# ERK [3] = test: Immunoblot of ERK phosphorylation in UM cells; assay type: cell-based, human; conditions: OMM1.3 cells
# Protocol: as §1
# [4] = tested on: UM cell lines (92.1, OMM1.3, OMM1.5, Mel270, Mel202; GNAQ mutant); test: Cell viability assay (Alamar Blue) in UM cell lines; assay type: cell-based, human
# Protocol: as §2, §3
# FAK [5] = test: Immunoblot of FAK phosphorylation in Gαq-DREADD expressing HEK293 cells stimulated with CNO; assay type: cell-based, human; conditions: CNO stimulation, 1 hr pre-treatment
# Protocol: as §1
# ERK [6] = test: Immunoblot of ERK phosphorylation in Gαq-DREADD expressing HEK293 cells stimulated with CNO; assay type: cell-based, human; conditions: CNO stimulation, 1 hr pre-treatment
# Protocol: as §1
# YAP = YAP nuclear/cytoplasmic localization (immunofluorescence, fractionation western blot) in UM cells; assay type: cell-based, human; conditions: OMM1.3, 1 μM
# Protocol: Cells cultured on coverslips were washed with PBS, fixed with 3.7% formaldehyde in phosphate-buffered saline (PBS) for 30 min, and permeabilized using 0.05% Triton X-100 for 10 min. Fixed cells were blocked with 3% FBS-containing PBS for 30 min, and incubated with YAP (Cell signaling technology, MI) antibody (in 3% FBS-PBS otherwise stated) for 1 hr at room temperature. The reaction was visualized with Alexa-labeled secondary antibodies (Invitrogen, CA). Samples were mounted in PBS buffer containing Hoechst 33342 (Molecular Probes, OR) for nuclear staining. Images were acquired with an Axio Imager Z1 microscope equipped with ApoTome system controlled by ZEN 2012 software (Carl Zeiss, NY).
# Subcellular fractionated lysates were generated using NE-PER Nuclear and Cytoplasmic Extraction Reagents (Thermo Scientific, CO) following manufacturer instructions.
# UM tumor xenografts = test: Human UM tumor xenografts (Mel270, OMM1.3) with VS-4718 in vivo treatment; set-up: species or system mice
# Protocol: All animal studies were carried out according the University of California San Diego (UCSD) Institutional Animal Care and Use Committee (IACUC)-approved protocol (S15195). Female NOD.Cg-Prkdcscid Il2rgtm1wjl/SzJ mice (commonly known as […], Jackson Laboratory, Maine), 6 to 8 weeks of age and weighing 18 to 20 g, were used in the study of UM cells, housed in appropriate sterile filter-capped cages, and provided food and water ad libitum. All procedures were essentially as previously described (Feng et al., 2014b; Schrage et al., 2015; Vaque et al., 2013). Briefly, exponentially growing cultures were harvested, washed, resuspended in RPMI 1640, and 2×10^6 viable cells were transplanted subcutaneously into the flanks of mice. For tumor growth analysis, tumor volume was assessed as [(LW^2/2); where L and W represent the length and the width of the tumor]. The animals were monitored twice weekly for tumor development. Results of animal experiments were expressed as mean±SEM of a total of tumors analyzed. To administer VS-4718 (Verastem Oncology; Needham, Mass.) to mice, 10 mg/ml VS-4718 was prepared in 0.5% carboxymethyl cellulose (CMC) (C5678, Sigma-Aldrich; St. Louis, Mo.) 0.1% Tween 80 (P1754, Sigma Aldrich; St. Louis, Mo.) in sterile water, 100 mg/kg administered via oral gavage twice daily, control group was treated with vehicle.
# The following antibodies were used for immunohistochemistry anti-Ki67 (DAKO) and anti-YAP (CST). Unstained 5 μm paraffin sections were dewaxed in Safeclear II (Fisher Scientific, PA), hydrated through graded alcohols and distilled water, and washed three times with PBS. Antigens were retrieved using or 10 mM citrate buffer boiled in a microwave for 20 min (2 min at 100% power and 18 min at 10% power). The slides were allowed to cool down for 30 min at room temperature, rinsed twice with PBS, incubated in 3% hydrogen peroxide in PBS for 10 min to quench the endogenous peroxidase. […]
# YAP-signature genes = test: RNA-seq and Gene Set Enrichment Analysis of UM cells treated with FAKi; assay type: cell-based, human; conditions: OMM1.3, 1 μM, 2 hr
# Excerpt: FAK is at the intersection of multiple signaling pathways that promote cancer progression (Sulzmaier et al., 2014), but it is not clear which downstream targets of FAK play a critical role in UM. As an approach to identify key downstream targets of the Gαq− FAK signaling axis, Applicant performed transcriptomic RNA-sequencing on UM cells treated with FAKi (i.e., FAK inhibitor), and performed Gene Set Enrichment Analysis (GSEA) (Subramanian et al., 2005) to characterize the transcriptional effects of inhibiting Gαq and FAK at the pathway level using over 10,000 gene sets from the MSigDB (Molecular Signatures Database), including two sub-collections of oncogenic signatures and hallmark gene sets that Applicants added to the database (Liberzon et al., 2015). […] These include the downregulation of genes described as stimulated by KRAS and EGFR and cytokines such as IL21 and IL15, consistent with the likely role in the activation of growth promoting pathways by FAK (Sulzmaier et al., 2014). […] In both cases, FAK inhibition or knockdown reduced YAP pY357 and increased pS127, and reduced mRNA levels of YAP targets and YAP activity measured by luciferase reporter assay (FIGS. 7A-7E), similar to UM cells.
# [7] = tested on: Hippo pathway components (YAP, LATS1, MOB1, MST1); test: Immunoblot / immunoprecipitation of YAP and Hippo pathway components in UM cells; assay type: cell-based, human
# Protocol: as §1
# Cells were lysed with IP lysis buffer [10 mM Tris-Cl (pH 8.0), 150 mM NaCl, 1 mM EDTA, 0.3% CHAPS, 50 mM NaF, 1.5 mM Na3VO4, protease inhibitor (Thermo Scientific, CO), 1 mM DTT, 1 mM PMSF], and centrifuged at 16,000 g for 5 min at 4° C. Supernatants were incubated with first antibody for 1 hr at 4° C., and protein G or protein A conjugated resin for another 1 hr. Resins were then washed 3 times with lysis buffer and boiled in SDS-loading buffer.
# OMM1.3 cells [8] = test: Colony formation assay in semisolid media (3D culture); assay type: cell-based, human; conditions: OMM1.3, semisolid media
# Protocol: 3-dimensional cultures were performed as described previously (Tancioni et al., 2015). Briefly, 10,000 cells were embedded in 1% methylcellulose diluted in growth media and plated onto 6-well poly-hydroxyethyl methacrylic acid (poly-HEMA)-coated plates.
# 92.1 xenograft = test: 92.1 OM xenografts treated with MEKi, FAKi or both; assay type: in vivo, mice; conditions: 92.1 xenografts; trametinib 1 mg/kg QD i.p., VS-4718 50 mg/kg BID p.o.
# Excerpt: FIGS. 17A and 17B show potent antitumoral and cytotoxic effects of FAKi/MEKi combination in OM xenografts. […] (FIG. 17B) Quantification of IHC tumor sections stained for BrdU, cleaved-caspase3 (Cl-Casp3), pERK1/2, and YAP. For each panel, the bars from left to right are control, MEKi, FAKi and MEKi+FAKi. Data are mean±SEM (7 mice/group), *p<0.05;**p<0.01; ***p<0.001; n. s. not significant.
# OMM1.3 cells [9] = test: Immunoblot of cleaved PARP (apoptosis) in UM cells; assay type: cell-based, human; conditions: OMM1.3, 36 hr
# Protocol: as §1
# [10] = tested on: YAP-target genes CTGF and CYR61; test: qPCR of YAP-target genes CTGF and CYR61 in UM cells; assay type: cell-based, human; conditions: 1 μM, 2 hr
# [11] = after prolonged use; cited from earlier work
compound,measurement,setting,value
CNS(=O)(=O)Nc1nccc(Cc2c(C)c3ccc(Oc4ncccn4)cc3oc2=O)c1F [CH5126766],synergy of growth inhibition in combination with FAKi VS-4718,OM cells; combined with VS-4718,synergistic anti-proliferative effects
same,synergy of anti-proliferative effect in combination with VS-6063 (defactinib),OM cells; combined with VS-6063,synergistic anti-proliferative effects
"C=C1C(=O)N[C@@H](C)C(=O)N(C)[C@@H](C)C(=O)N[C@@H]([C@H](OC(=O)[C@@H](NC(=O)CC)[C@H](O)C(C)C)C(C)C)C(=O)N(C)[C@@H]([C@@H](C)OC)C(=O)O[C@H](C(C)C)[C@H](NC(C)=O)C(=O)O[C@H](Cc2ccccc2)C(=O)N1C [FR900359] (Ac-[X1][dPhLac][NMeDha]A[NMeA][X1](Leu(3R-OH,Nα-propionyl))[NMeT](Me); ester 1-C)",FAK activation (pY397-FAK) in UM cells,FAK [1],diminished
same,"SKCM cell proliferation, result in words",[2],only in UM cells
same,ERK activation in UM cells,ERK [3],diminished
same,"UM cell viability / proliferation, result in words",[4]; UM cell lines,inhibition of cell proliferation
COc1ccc2c(c1)CC[C@@H]1[C@@H]2CC[C@]2(C)[C@@H](NCCCCCCN3C(=O)C=CC3=O)CC[C@@H]12 [U73122],FAK activation by Gαq-DREADD in HEK293 cells,FAK [5],did not have an impact
same,ERK activation by Gαq-DREADD in HEK293 cells,ERK [6],abolished
CNC(=O)c1ccccc1Nc1cc(Nc2ccc(N3CCOCC3)cc2OC)ncc1C(F)(F)F [VS-4718],YAP nuclear accumulation,YAP,clearly diminished
same,cytoplasmic retention of YAP in tumors,UM tumor xenografts; Mel270 tumors,clearly increased
same,cell proliferation in UM tumors (Ki67),"UM tumor xenografts; two UM tumor models (Mel270, OMM1.3)",reduces
same,UM tumor size,"UM tumor xenografts; two UM tumor models (Mel270, OMM1.3), 100 mg/kg oral gavage twice daily",reduces
same,"expression of YAP-signature genes (RNA-seq, GSEA)",YAP-signature genes,significant downregulation
same,FAK activation (pY397-FAK) in UM cells,FAK [1],inhibited FAK rapidly; also recorded: decrease in pY397-FAK
same,MOB1/LATS interaction,[7],enhanced
same,p909-LATS1,[7],increase
same,p1079-LATS1,[7],increase
same,p-MST1,[7],did not observe an increase
same,pY26 MOB1,"[7]; 0-10 μM, 2 hr",dose-dependent decrease
same,YAP phosphorylation on serine 127 (pS127-YAP),[7]; listed as FAKi,increase
same,YAP phosphorylation on tyrosine 357 (Y357),[7]; listed as FAKi,repressed; also recorded: diminished phosphorylation
same,total YAP protein level,[7]; long-term (up to 36 hours),downregulation
same,colony formation ability of UM cells,OMM1.3 cells [8],nearly abolished the colony formation ability
same,EC50,"[2]; Homo sapiens, SK-MEK-28 (BRAF mutant), control",> 10 µM
same,antitumoral profile in OM xenografts (cl-Casp3),92.1 xenograft,cytostatic profile
same,cleaved PARP (UM apoptosis),OMM1.3 cells [9],accumulation of cleaved PARP; also recorded: increased cleaved PARP
same,mRNA of YAP-target genes CTGF and CYR61 (qPCR),[10],significant reduction
same,EC50,"[4]; Homo sapiens, 92.1, OMM1.3, OMM1.5, Mel270, Mel202, 72 hr, read-out: EC50, sensitivity of UM cell lines to FAK inhibition (cell viability)",~1 µM
C[C@@H](N)[C@H]1CC[C@H](C(=O)Nc2ccncc2)CC1 [Y-27632],FAK activation by Gαq-DREADD in HEK293 cells,FAK [5],repressed FAK activation
same,FAK activation (pY397-FAK) in UM cells,FAK [1],repressed FAK activation
Cc1ccc2c(c1)C(=O)C1(O)CCN(c3ccccc3)C1=N2 (stereo not drawn) [blebbistatin],FAK activation by Gαq-DREADD in HEK293 cells,FAK [5],repressed FAK activation
same,FAK activation (pY397-FAK) in UM cells,FAK [1],repressed FAK activation
verteporfin,systemic toxicity,[11],high systemic toxicities
